Laboratory results: the supplement of paper PMC10307832

Key:
Assay in all cases: relative viability (nuclei count vs DMSO), 5 days (fraction); higher = more cells survive
[1] = compound: C1=CC=C(C(=C1)C2=CC=C(C=C2)C3=CSC4=C3C(=C(C(=O)N4)C#N)O)O + NC(=O)Nc1cc(-c2cccc(F)c2)sc1C(=O)N[C@H]1CCCNC1 [AZD7762] (partner 0.2 µM)
In short: (§1)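 Values are medians from duplicate plates. Each reflects relative viability, defined as the nuclei count of treated wells over that of vehicle wells. Lung cancer cell lines in 1536-well plates were pin-tool dosed one day after seeding with one drug alone or with a fixed anchor-drug dose plus five library-drug doses (not always all listed) in √10 steps, then fixed, stained and imaged at 4× after 5 days.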

[2] = compound: C1=CC=C(C(=C1)C2=CC=C(C=C2)C3=CSC4=C3C(=C(C(=O)N4)C#N)O)O + O=C(CCCCCCC(=O)Nc1ccccc1)NO [Vorinostat] (partner 1 µM)
In short: as §1

TGX 221 + Bortezomib = compound: CC1=CN2C(=O)C=C(N=C2C(=C1)C(C)NC3=CC=CC=C3)N4CCOCC4 [TGX 221] + CC(C)C[C@H](NC(=O)[C@H](Cc1ccccc1)NC(=O)c1cnccn1)B(O)O [Bortezomib] (partner 0.002 µM)
In short: as §1

TGX 221 + Alpelisib = compound: CC1=CN2C(=O)C=C(N=C2C(=C1)C(C)NC3=CC=CC=C3)N4CCOCC4 [TGX 221] + Cc1nc(NC(=O)N2CCC[C@H]2C(N)=O)sc1-c1ccnc(C(C)(C)C(F)(F)F)c1 [Alpelisib] (partner 2 µM)
In short: as §1

Row | Cell Line | relative viability ([1]; first compound 0.08 µM) | relative viability ([1]; first compound 0.253 µM) | relative viability ([1]; first compound 0.8 µM) | relative viability ([1]; first compound 2.53 µM) | relative viability ([1]; first compound 8 µM) | relative viability ([2]; first compound 0.08 µM) | relative viability ([2]; first compound 0.253 µM) | relative viability ([2]; first compound 0.8 µM) | relative viability ([2]; first compound 2.53 µM) | relative viability ([2]; first compound 8 µM) | relative viability (TGX 221 + Bortezomib; first compound 0.253 µM) | relative viability (TGX 221 + Bortezomib; first compound 0.8 µM) | relative viability (TGX 221 + Bortezomib; first compound 2.53 µM) | relative viability (TGX 221 + Bortezomib; first compound 8 µM) | relative viability (TGX 221 + Alpelisib; first compound 0.08 µM) | relative viability (TGX 221 + Alpelisib; first compound 0.253 µM) | relative viability (TGX 221 + Alpelisib; first compound 0.8 µM) | relative viability (TGX 221 + Alpelisib; first compound 2.53 µM) | relative viability (TGX 221 + Alpelisib; first compound 8 µM) | relative viability (TGX 221 + Bortezomib; first compound 0.08 µM)
1 | NCI-H2347 | 0.692 | 0.79 | 0.758 | 0.694 | 0.739 | 0.507 | 0.59 | 0.55 | 0.539 | 0.568 | 0.899 | 0.886 | 0.877 | 0.752 | 0.994 | 0.911 | 0.955 | 0.605 | 0.756 | 
2 | ABC-1 | 0.781 | 0.881 | 0.799 | 0.855 | 0.827 | 0.813 | 0.921 | 1.03 | 0.956 | 0.768 | 0.243 | 0.348 | 0.315 | 0.29 | 1.03 | 0.858 | 0.996 | 0.99 | 0.838 | 0.325
3 | NCI-H1355 | 0.693 | 0.899 | 0.739 | 0.763 | 0.752 | 0.627 | 0.658 | 0.626 | 0.578 | 0.592 | 1.16 | 1.26 | 1.12 | 1.08 | 0.711 | 0.67 | 0.673 | 0.584 | 0.54 | 1.18
4 | LXF-289 | 1.06 | 1.09 | 1.15 | 1.2 | 0.925 | 0.902 | 0.831 | 0.833 | 0.82 | 0.907 | 0.979 | 0.915 | 0.974 | 1.06 | 0.948 | 0.979 | 0.947 | 0.898 | 0.898 | 1.02
5 | NCI-H2085 | 0.891 | 1.06 | 0.86 | 1.02 | 0.997 | 0.726 | 0.893 | 0.764 | 0.784 | 0.714 | 0.856 | 0.889 | 0.809 | 0.724 | 0.94 | 0.689 | 0.57 | 0.424 | 0.406 | 1.05
6 | EMC-BAC-2 | 1.05 | 1.21 | 1.11 | 0.981 | 0.939 | 0.463 |  | 0.331 | 0.435 | 0.362 | 1.02 | 1.08 | 1.03 | 1.07 | 0.735 | 0.597 | 0.679 | 0.623 | 0.629 | 1.02
7 | NCI-H3122 | 0.985 | 0.987 | 0.995 | 1.03 | 0.917 | 1 | 0.992 | 1.14 | 1.09 | 0.89 | 1.04 | 0.969 | 0.941 | 1.02 | 0.758 | 0.735 | 0.717 | 0.681 | 0.787 | 1.02
8 | LC-2-ad | 0.873 | 0.798 | 0.871 | 0.872 | 0.824 | 0.627 | 0.643 | 0.705 | 0.722 | 0.654 |  | 1.07 | 1.05 | 0.928 | 0.81 |  | 0.722 | 0.645 | 0.62 | 0.978
9 | NCI-H1734 | 0.573 | 0.511 | 0.559 | 0.594 | 0.459 | 0.747 | 0.767 | 0.751 | 0.803 | 0.765 | 0.893 | 0.853 | 0.779 | 0.823 | 0.619 | 0.509 | 0.562 | 0.448 | 0.448 | 0.876
10 | NCI-H1975 | 0.665 | 0.746 | 0.606 | 0.736 | 0.633 | 0.665 | 0.78 | 0.736 | 0.81 | 0.677 | 0.351 | 0.384 | 0.39 | 0.305 | 0.585 | 0.454 | 0.465 | 0.446 | 0.362 | 0.459
11 | NCI-H1651 | 0.496 | 0.454 | 0.428 | 0.479 | 0.334 | 0.509 | 0.523 | 0.583 | 0.535 | 0.51 | 0.96 | 0.919 | 0.868 | 0.858 | 0.83 | 0.742 | 0.77 | 0.716 | 0.498 | 
12 | NCI-H1437 | 1.1 | 1.27 | 1.12 | 1.22 | 1.15 | 0.788 | 0.934 | 0.889 | 0.874 | 0.603 | 0.53 | 0.522 | 0.414 | 0.486 | 0.892 | 0.851 | 0.889 | 0.66 | 0.487 | 0.535
13 | NCI-H647 | 0.294 | 0.337 | 0.276 | 0.39 | 0.301 |  | 0.947 | 0.58 | 0.637 | 0.461 | 0.66 | 0.926 | 0.676 | 0.616 | 0.867 | 0.862 | 0.65 | 0.624 | 0.459 | 0.929
14 | LU99A | 0.331 | 0.293 | 0.335 | 0.391 | 0.275 | 0.501 | 0.478 | 0.702 | 0.49 | 0.425 | 0.887 | 1.04 | 1.04 | 1.09 | 0.524 | 0.443 | 0.494 | 0.513 | 0.57 | 1.06
15 | HCC-78 | 0.682 | 0.744 | 0.638 | 0.502 | 0.551 | 0.514 | 0.678 | 0.448 | 0.523 | 0.352 | 0.38 | 0.429 | 0.24 | 0.335 | 0.299 | 0.23 |  | 0.2 | 0.175 | 0.435
16 | NCI-H1666 | 0.807 | 0.894 | 0.8 | 0.796 | 0.706 | 0.905 | 1.04 | 0.993 | 1.03 | 0.984 | 0.723 | 0.872 | 0.648 | 0.764 | 0.855 | 0.742 | 0.735 | 0.645 | 0.654 | 0.771
17 | EKVX | 0.696 | 0.699 | 0.725 | 0.746 | 0.595 | 0.672 | 1.01 | 0.758 | 0.653 | 0.561 | 1.11 | 0.939 | 0.985 | 0.986 | 0.77 | 0.716 | 0.648 | 0.5 | 0.477 | 1.02
18 | HARA | 0.286 | 0.361 | 0.345 | 0.284 | 0.304 |  | 0.792 | 0.701 |  | 0.371 | 1.07 | 1.05 | 1.09 | 1.2 | 0.778 | 0.659 | 0.803 | 0.574 | 0.584 | 1.13
19 | A-427 | 0.672 | 0.81 | 0.746 | 0.776 | 0.716 | 0.923 | 0.861 | 0.864 | 0.904 | 0.859 | 0.99 | 0.965 | 0.942 | 0.993 | 1.04 | 1.11 | 1.14 | 0.976 | 1.08 | 0.954
20 | NCI-H2087 | 1.58 | 1.2 | 1.25 | 1.41 | 0.75 | 0.336 | 0.672 | 0.685 | 0.764 | 0.918 | 0.759 | 0.916 | 0.956 | 1.06 | 0.978 | 1.13 | 1.13 | 1.12 | 1.31 | 0.832
21 | NCI-H460 | 0.579 | 0.68 | 0.604 | 0.611 | 0.585 | 0.529 | 0.339 | 0.866 | 0.924 | 0.582 | 0.922 | 1.02 | 1.11 | 1 | 0.386 | 0.295 | 0.274 | 0.167 | 0.137 | 0.724
22 | PC-14 | 0.316 | 0.272 | 0.332 | 0.363 | 0.24 | 0.64 | 0.863 | 0.563 | 0.71 | 0.567 | 0.89 | 0.828 | 0.804 | 0.874 | 1.01 | 0.822 | 0.817 | 0.919 | 0.857 | 0.895
23 | NCI-H1993 | 0.812 | 0.841 | 0.811 | 0.74 | 0.646 | 0.57 | 1.02 | 0.979 | 0.845 | 0.644 | 0.838 | 0.963 | 0.785 | 0.892 | 0.64 | 0.57 | 0.723 | 0.616 | 0.651 | 0.932
24 | BEN | 0.647 | 0.692 | 0.675 | 0.807 | 0.73 | 0.567 | 0.678 | 0.59 | 0.531 | 0.573 | 0.694 | 0.528 | 0.756 | 0.915 | 0.982 | 0.942 | 0.899 | 0.899 | 0.88 | 0.773
25 | RERF-LC-KJ | 0.884 | 1.06 | 0.947 | 0.778 | 0.553 | 0.639 | 0.763 | 0.751 | 0.714 | 0.544 | 1.06 | 1.27 | 0.961 | 1.01 | 0.66 | 0.713 | 0.603 | 0.644 | 0.637 | 0.908
26 | HOP-62 | 0.533 | 0.548 | 0.376 | 0.704 | 0.474 | 0.586 | 0.856 | 0.607 | 0.647 | 0.522 | 0.85 | 0.788 | 0.847 | 0.93 | 0.899 | 0.958 | 0.827 | 1.13 | 1.11 | 0.605
27 | NCI-H596 | 0.862 | 1.09 | 1.21 | 1.18 | 0.986 | 0.588 | 0.574 | 0.589 | 0.48 | 0.527 | 1.21 | 0.938 | 0.871 | 0.948 | 0.423 | 0.419 | 0.445 | 0.403 | 0.387 | 1.17
